# Source: publication PMC6042686 (PLoS Biology, 2018)
# Values joined by “and” are separate entries in the source; they are usually repeats but may differ in a detail not shown here. Equal entries are not always repeated. Where two headings read alike, the source gives them in different places.
# Assays:
# [1] = molecular target: tsV1_M579A (Tupaia chinensis, UniProt L8Y7X1, M598A); experiment: cell-based; design: species or system tree shrew
# [2] = molecular target: tsV1_M579S (Tupaia chinensis, UniProt L8Y7X1, M598S); experiment: cell-based; design: species or system tree shrew
# [3] = molecular target: tsV1_M579G (Tupaia chinensis, UniProt L8Y7X1, M598G); experiment: cell-based; design: species or system tree shrew
# [4] = molecular target: tsV1_M579V (Tupaia chinensis, UniProt L8Y7X1, M598V); experiment: cell-based; design: species or system tree shrew
# [5] = molecular target: polar bear TRPV1 (pV1) (Ursus maritimus, UniProt A0A384CG69); experiment: cell-based
# [6] = molecular target: tree shrew TRPV1 (tsV1) (Tupaia chinensis, UniProt L8Y7X1); experiment: cell-based; details: for EC50: EC50 for activation of tsV1
# [7] = molecular target: tsV1_M579T (Tupaia chinensis, UniProt L8Y7X1, M598T); experiment: cell-based; assay type: cell-based, tree shrew
# [8] = molecular target: T1, mouse TRPV1 (mV1) (Mus musculus, UniProt Q704Y3); experiment: cell-based; details: EC50 for activation of mV1
# T1 construct: expressed in transfected cells; host or cells: HEK293T
# [9] = test system: BALB/c mice; details: in vivo; for Change of food intake when the compound is added to the food: mouse;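 on Normalized food-intake, mouse (individual replicate): normalized to average intake of feed without capsaicin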
# [10] = molecular target: T2, human TRPV1 (hV1) (Homo sapiens, UniProt Q8NER1); experiment: cell-based
# T2 construct: expressed in transfected cells; host or cells: HEK293T
# [11] = molecular target: T3, mV1_T551M (Mus musculus, UniProt Q704Y3, T551M); experiment: cell-based
# T3 construct: expressed in transfected cells; host or cells: HEK293T (patch clamp); HEK293 (calcium imaging)
# [12] = molecular target: T3, mV1_T551M; assay type: cell-based
# [13] = test system: tree shrews; assay type: in vivo, tree shrew (Tupaia belangeri chinensis);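 on Normalized food-intake, tree shrew (individual replicate): normalized to average intake of feed without capsaicin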
# [14] = molecular target: T4, mV1_T551V (Mus musculus, UniProt Q704Y3, T551V); experiment: cell-based
# T4 construct: expressed in transfected cells; host or cells: HEK293T
# [15] = test system: tree shrew DRG neurons; assay type: cell-based
# [16] = test system: BALB/c mice; details: in vivo;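 on Normalized food-intake, mouse (individual replicate): normalized to average intake of feed without capsaicin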
# [17] = test system: tree shrew; details: in vivo
# [18] = test system: mouse paw tissue; details: in vivo
# T1 sequence (Q704Y3 whole entry): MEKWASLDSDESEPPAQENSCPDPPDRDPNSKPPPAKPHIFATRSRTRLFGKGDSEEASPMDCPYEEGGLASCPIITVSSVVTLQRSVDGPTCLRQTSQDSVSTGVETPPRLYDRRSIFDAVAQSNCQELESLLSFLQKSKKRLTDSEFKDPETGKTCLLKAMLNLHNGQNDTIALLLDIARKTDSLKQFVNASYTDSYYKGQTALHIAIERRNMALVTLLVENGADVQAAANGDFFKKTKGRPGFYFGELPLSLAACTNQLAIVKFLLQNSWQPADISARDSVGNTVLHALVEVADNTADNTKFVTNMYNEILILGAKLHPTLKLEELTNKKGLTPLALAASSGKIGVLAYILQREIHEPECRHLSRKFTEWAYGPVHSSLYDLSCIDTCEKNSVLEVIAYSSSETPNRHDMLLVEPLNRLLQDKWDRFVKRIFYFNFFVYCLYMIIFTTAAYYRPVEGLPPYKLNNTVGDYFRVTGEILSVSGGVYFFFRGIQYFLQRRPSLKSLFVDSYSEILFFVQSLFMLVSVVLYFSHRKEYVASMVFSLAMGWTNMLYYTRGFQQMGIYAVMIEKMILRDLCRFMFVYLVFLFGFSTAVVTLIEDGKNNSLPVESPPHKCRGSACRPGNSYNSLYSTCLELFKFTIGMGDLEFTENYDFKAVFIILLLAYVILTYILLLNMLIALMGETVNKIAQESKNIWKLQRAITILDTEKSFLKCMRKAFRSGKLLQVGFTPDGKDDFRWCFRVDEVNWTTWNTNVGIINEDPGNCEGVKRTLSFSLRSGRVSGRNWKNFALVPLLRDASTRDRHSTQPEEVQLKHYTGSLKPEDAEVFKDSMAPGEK
# tsV1_M579T, sequence (L8Y7X1 1-828 M598T): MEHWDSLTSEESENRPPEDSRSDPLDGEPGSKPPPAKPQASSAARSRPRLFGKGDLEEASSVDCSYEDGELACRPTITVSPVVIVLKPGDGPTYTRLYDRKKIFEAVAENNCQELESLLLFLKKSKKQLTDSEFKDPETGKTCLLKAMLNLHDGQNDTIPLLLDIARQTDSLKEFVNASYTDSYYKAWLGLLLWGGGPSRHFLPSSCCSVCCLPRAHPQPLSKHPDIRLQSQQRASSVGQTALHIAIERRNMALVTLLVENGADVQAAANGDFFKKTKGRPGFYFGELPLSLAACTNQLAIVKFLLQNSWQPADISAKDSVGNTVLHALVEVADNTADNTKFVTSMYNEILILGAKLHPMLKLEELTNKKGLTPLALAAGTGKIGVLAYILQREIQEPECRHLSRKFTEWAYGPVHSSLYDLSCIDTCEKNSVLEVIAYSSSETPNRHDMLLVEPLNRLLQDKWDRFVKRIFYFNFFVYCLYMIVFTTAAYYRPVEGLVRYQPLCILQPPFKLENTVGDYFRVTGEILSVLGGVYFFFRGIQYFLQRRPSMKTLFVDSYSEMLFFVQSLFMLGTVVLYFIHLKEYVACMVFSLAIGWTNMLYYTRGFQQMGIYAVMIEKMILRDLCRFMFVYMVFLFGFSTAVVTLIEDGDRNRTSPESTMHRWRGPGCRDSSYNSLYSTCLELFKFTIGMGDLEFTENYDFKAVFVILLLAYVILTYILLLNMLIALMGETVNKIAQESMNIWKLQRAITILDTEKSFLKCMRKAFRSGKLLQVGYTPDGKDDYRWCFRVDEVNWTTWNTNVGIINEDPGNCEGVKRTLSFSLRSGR
# tree shrew TRPV1 (tsV1), sequence (L8Y7X1 1-828): as the sequence (L8Y7X1 1-828 M598T) above, with T598M counted along it
# T3 sequence (Q704Y3 whole entry T551M): as the sequence (Q704Y3 whole entry) above, with T551M counted along it
# tsV1_M579S, sequence (L8Y7X1 1-828 M598S): as the sequence (L8Y7X1 1-828 M598T) above, with T598S counted along it
# tsV1_M579V, sequence (L8Y7X1 1-828 M598V): as the sequence (L8Y7X1 1-828 M598T) above, with T598V counted along it
# tsV1_M579G, sequence (L8Y7X1 1-828 M598G): as the sequence (L8Y7X1 1-828 M598T) above, with T598G counted along it
# tsV1_M579A, sequence (L8Y7X1 1-828 M598A): as the sequence (L8Y7X1 1-828 M598T) above, with T598A counted along it
# T2 sequence (Q8NER1 whole entry): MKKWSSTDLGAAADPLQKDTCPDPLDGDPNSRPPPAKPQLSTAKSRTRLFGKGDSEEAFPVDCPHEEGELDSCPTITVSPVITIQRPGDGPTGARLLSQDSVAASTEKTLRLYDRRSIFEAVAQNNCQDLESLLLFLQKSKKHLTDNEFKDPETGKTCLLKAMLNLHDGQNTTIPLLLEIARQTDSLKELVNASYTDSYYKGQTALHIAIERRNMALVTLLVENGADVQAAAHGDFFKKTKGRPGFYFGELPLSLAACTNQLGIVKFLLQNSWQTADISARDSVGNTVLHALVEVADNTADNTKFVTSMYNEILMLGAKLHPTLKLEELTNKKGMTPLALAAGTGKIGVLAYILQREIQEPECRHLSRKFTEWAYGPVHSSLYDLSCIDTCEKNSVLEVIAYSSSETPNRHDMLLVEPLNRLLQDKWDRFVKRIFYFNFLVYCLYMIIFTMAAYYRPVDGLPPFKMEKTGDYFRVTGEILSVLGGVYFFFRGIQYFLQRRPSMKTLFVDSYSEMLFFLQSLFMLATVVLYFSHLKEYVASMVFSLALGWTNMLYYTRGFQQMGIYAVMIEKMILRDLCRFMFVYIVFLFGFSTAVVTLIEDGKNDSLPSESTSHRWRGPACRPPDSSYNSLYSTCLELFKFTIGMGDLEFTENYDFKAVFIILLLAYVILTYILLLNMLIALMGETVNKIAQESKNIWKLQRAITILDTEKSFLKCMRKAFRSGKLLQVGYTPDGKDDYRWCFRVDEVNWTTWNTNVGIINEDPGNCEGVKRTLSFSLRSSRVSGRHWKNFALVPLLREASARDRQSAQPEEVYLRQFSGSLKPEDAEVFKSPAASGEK
# polar bear TRPV1 (pV1), sequence (A0A384CG69 1-841): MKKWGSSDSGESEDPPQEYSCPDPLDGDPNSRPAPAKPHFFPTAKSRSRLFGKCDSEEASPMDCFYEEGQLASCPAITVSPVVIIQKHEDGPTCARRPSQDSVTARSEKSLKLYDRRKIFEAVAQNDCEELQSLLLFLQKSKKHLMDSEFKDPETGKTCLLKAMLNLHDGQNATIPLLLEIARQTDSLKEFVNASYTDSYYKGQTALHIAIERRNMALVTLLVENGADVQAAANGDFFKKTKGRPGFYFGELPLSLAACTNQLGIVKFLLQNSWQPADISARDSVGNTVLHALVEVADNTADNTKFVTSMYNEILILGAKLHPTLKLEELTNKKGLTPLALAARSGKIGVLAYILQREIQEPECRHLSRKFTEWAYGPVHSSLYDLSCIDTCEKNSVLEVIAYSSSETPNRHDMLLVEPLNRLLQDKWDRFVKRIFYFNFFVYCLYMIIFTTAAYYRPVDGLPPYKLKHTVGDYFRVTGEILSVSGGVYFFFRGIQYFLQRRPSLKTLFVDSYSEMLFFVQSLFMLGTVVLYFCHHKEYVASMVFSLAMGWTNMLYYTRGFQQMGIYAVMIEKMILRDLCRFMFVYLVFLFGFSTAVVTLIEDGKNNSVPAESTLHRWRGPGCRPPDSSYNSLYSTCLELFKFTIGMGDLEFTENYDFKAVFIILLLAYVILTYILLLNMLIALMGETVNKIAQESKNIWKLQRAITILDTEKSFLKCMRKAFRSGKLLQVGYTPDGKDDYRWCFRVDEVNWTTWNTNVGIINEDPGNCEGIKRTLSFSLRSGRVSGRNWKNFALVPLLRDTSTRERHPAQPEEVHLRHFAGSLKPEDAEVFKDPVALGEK
# T4 sequence (Q704Y3 whole entry T551V): as the sequence (Q704Y3 whole entry) above, with T551V counted along it
compound,measurement,setting,value
CCCCC/C=C/C=C/C(=O)NCCc1ccc(O)c(OC)c1 [Cap2],EC50,[1],1070 µM
same,EC50,[2],5.46 µM
same,Shift of concentration-response curve relative to wild-type tsV1,[2],large shifts to the left
same,EC50,[3],920 µM
same,EC50,[4],830 µM
same,EC50,[5],0.87 ± 0.04 µM
same,EC50,[6],1900 µM and ~1900 µM
same,EC50 of tsV1 larger than the EC50 of mV1,[6]; hek293t cells,"approximately 2,500 fold"
same,EC50,[7],2.34 ± 0.26 µM
same,Shift of concentration-response curve relative to wild-type tsV1,[7],large shifts to the left
same,Change in the EC50 on mutating the homologous site (mV1_T551M or tsV1_M579T),[7]; hek293t cells,"approximately 1,000 fold"
same,EC50 of tsV1_M579T lower than EC50 of wild-type tsV1,[7]; hek293t cells,"approximately 1,000 fold"
same,EC50,[8],0.74 ± 0.05 µM
same,Change of food intake when the compound is added to the food,[9],significantly decreased
same,EC50,[10],5.73 ± 0.05 µM
same,EC50,[11],151.4 ± 0.12 µM
same,Calcium signal in mV1_T551M-expressing HEK293 cells,[12],largely diminished calcium signal
same,Change of food intake when the compound is added to the food,[13]; in vivo,slight increase
same,"Normalized food-intake, AVE_tree shrew",[13]; in vivo,1.13 and 1.269 and 1.38 and 1.28
COc1cc(CNC(=O)CCCC/C=C/C(C)C)ccc1O [capsaicin],EC50,[14],~1.5 µM
same,Calcium response of DRG neurons,[15],much weaker response
same,EC50,[6],5.2 ± 0.13 µM
same,Change in the EC50 on mutating the homologous site (mV1_T551M or tsV1_M579T),[7],approximately 10 fold
same,EC50 of tsV1_M579T lower than EC50 of wild-type tsV1,[7],approximately 50 fold
same,"paw licking after capsaicin (S1B Fig), mouse, single animals",[16],74.03 and 80.09 and 18.24 and 91.1 and 11.82 and 100.82 and 8.03 and 45.87 and 22.39 and 126.21
same,"paw licking after capsaicin (S1B Fig), AVE_mouse",[16]; mouse,55.056 and 60.664
same,EC50,[8],0.2 µM and ~0.2 µM
same,"Normalized food-intake, mouse (individual replicate)",[9],0.359 and 0.496 and 0.524 and 0.168 and 0.264 and 0.288 and 0.063 and 0.143 and 0.169 and 0.008 and 0.009 and 0.007
same,Change of food intake when the compound is added to the food,[9],significantly reduced in a concentration-dependent manner
same,Capsaicin-induced acute pain behavior (paw licking),[17],absent
same,"paw licking after capsaicin (S1B Fig), AVE_tree shrew",[17],1.836 and 1.5525
same,"paw licking after capsaicin (S1B Fig), tree shrew, single animals",[17],3.34 and 1.67 and 2.84 and 0.95 and 1.47 and 1.89 and 1.46 and 0.74 and 2 and 2.07 and 2.32 and 2.01 and 1.28
same,EC50,[11],~2.1 µM
same,Paw tissue histology (H&E) after hind paw injection,[18],significantly increased
same,"Normalized food-intake, AVE_tree shrew","[13]; 24 hours, n = 3",1.087 and 1.119 and 1.28 and 1.255
same,Change of food intake when the compound is added to the food,[13]; in vivo,no such change
same,"Normalized food-intake, tree shrew (individual replicate)",[13]; in vivo,1.004 and 1.211 and 1.046 and 1.034 and 1.223 and 1.101 and 1.209 and 1.372 and 1.259 and 1.119 and 1.381 and 1.265
CCCCC[C@H](O)CC(=O)CCc1ccc(O)c(OC)c1 [gingerol],Change in the EC50 on mutating the homologous site (mV1_T551M or tsV1_M579T),[7],approximately 6 fold
O=C(/C=C/C=C/c1ccc2c(c1)OCO2)N1CCCCC1 [piperine],Change in the EC50 on mutating the homologous site (mV1_T551M or tsV1_M579T),[7]; hek293t cells,approximately 2 fold
CCCCC/C=C/C(=O)CCc1ccc(O)c(OC)c1 [shogaol],Change in the EC50 on mutating the homologous site (mV1_T551M or tsV1_M579T),[7]; hek293t cells,approximately 10 fold
